Measured values from the NIST ThermoML archive (doi:10.1021/je900709n).
± gives the expanded uncertainty stated by the source.

Columns and labels:
[1] = Liquid
[2] = φn = volume fraction of the nth substance listed; conditions: 101 kPa, Liquid; for viscosity: Capillary tube (Ostwald / Ubbelohde) method; for mass density: Pycnometric method

| viscosity ([1]; 298.15 K, 101.33 kPa, Capillary tube (Ostwald / Ubbelohde) method) | mass density ([1]; 298.15 K, 101.33 kPa, Pycnometric method) | Normal boiling temperature ([1]; Distillation) | viscosity ([2]; 298.15 K, φ2 = 0.3) | viscosity ([2]; 298.15 K, φ2 = 0.6) | viscosity ([2]; 298.15 K, φ2 = 0.9) | mass density ([2]; 298.15 K, φ2 = 0.3) | mass density ([2]; 298.15 K, φ2 = 0.6) | mass density ([2]; 298.15 K, φ2 = 0.9) | viscosity ([2]; 308.15 K, φ2 = 0.3) | viscosity ([2]; 308.15 K, φ2 = 0.6) | viscosity ([2]; 308.15 K, φ2 = 0.9) | mass density ([2]; 308.15 K, φ2 = 0.3) | mass density ([2]; 308.15 K, φ2 = 0.6) | mass density ([2]; 308.15 K, φ2 = 0.9) | Structure (SMILES) |
| --- | --- | --- | --- | --- | --- | --- | --- | --- | --- | --- | --- | --- | --- | --- | --- |
| 0.575 ± 0.012 mPa·s | 1058.6 ± 1.2 kg/m3 | 75 ± 1 °C | – | – | – | – | – | – | – | – | – | – | – | – | C1COCO1 [1,3-dioxolane] |
| – | – | – | 0.9716 ± 0.19 mPa·s | 1.357 ± 0.27 mPa·s | 0.9415 ± 0.19 mPa·s | 1049.2 ± 6 kg/m3 | 1039.1 ± 6 kg/m3 | 1009.2 ± 6 kg/m3 | 0.9314 ± 0.19 mPa·s | 1.133 ± 0.23 mPa·s | 0.822 ± 0.16 mPa·s | 1041.1 ± 6 kg/m3 | 1030.7 ± 6 kg/m3 | 1003.3 ± 6 kg/m3 | C1COCO1 [1,3-dioxolane] + O |
